The record followed here is paper PMC7486443, “Generation of Phenothiazine with Potent Anti-TLK1 Activity for Prostate Cancer Therapy” (iScience, 2020).

Among the targets are CDK3 (Homo sapiens, UniProt Q00526); GSK3A (Homo sapiens, UniProt P49840); DYRK2 (Homo sapiens, UniProt Q92630); PRKCQ (Homo sapiens, UniProt Q04759); SRPK3 (Homo sapiens, UniProt Q9UPE1); PKMYT1 (Homo sapiens, UniProt Q99640); TAOK2 (Homo sapiens, UniProt Q9UL54); KIT(V559D,V654A) (Homo sapiens, UniProt P10721, V559D/V654A); FLT3(ITD) (Homo sapiens, UniProt P36888, ITD); TTK (Homo sapiens, UniProt P33981); TIE1 (Homo sapiens, UniProt P35590); CDK7 (Homo sapiens, UniProt P50613); GAK (Homo sapiens, UniProt O14976); CSNK2A2 (Homo sapiens, UniProt P19784).

Common to all, as to assay: biochemical
What all share (set-up): DiscoverX KINOMEscan scanMAX competition binding panel, single concentration, percent of control; remaining binding: dose or concentration left out as unconfirmed
Conditions in all cases: KINOMEscan binding, percent of control; read-out: Table S4_SCANMAX REPORT - related to Fig. 1 / Percent Control

The target in a further assay is T1, PFPK5(P.falciparum) (Plasmodium falciparum, UniProt P61075).
T1 construct: gene MAL13P1.279
T1 sequence (P61075 whole entry): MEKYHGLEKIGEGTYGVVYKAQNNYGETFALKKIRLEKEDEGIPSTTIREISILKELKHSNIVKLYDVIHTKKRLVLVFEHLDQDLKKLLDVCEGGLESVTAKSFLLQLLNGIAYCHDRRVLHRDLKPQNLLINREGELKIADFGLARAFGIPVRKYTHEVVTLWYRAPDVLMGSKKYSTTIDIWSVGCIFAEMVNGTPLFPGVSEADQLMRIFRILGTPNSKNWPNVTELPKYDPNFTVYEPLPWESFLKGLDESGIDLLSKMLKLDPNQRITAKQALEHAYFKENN

Another assay concerns the target T2, p38-alpha (Homo sapiens, UniProt Q16539).
T2 construct: gene MAPK14

The next assay deals with T3, PIP5K2C (Homo sapiens, UniProt Q8TBX8).
T3 construct: gene PIP4K2C

Another assay addresses T4, NIK (Homo sapiens, UniProt Q99558).
T4 construct: gene MAP3K14

CDK7, sequence (P50613 whole entry): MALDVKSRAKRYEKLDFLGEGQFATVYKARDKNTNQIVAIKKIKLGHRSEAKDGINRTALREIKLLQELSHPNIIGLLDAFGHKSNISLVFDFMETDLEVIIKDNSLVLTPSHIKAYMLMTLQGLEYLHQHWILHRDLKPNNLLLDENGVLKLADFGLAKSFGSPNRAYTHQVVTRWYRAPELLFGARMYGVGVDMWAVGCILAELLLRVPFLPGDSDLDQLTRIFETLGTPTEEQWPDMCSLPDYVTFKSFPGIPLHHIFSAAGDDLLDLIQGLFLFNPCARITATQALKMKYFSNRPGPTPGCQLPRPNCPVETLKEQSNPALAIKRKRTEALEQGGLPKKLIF
FLT3(ITD), sequence (P36888 564-993, change not shown): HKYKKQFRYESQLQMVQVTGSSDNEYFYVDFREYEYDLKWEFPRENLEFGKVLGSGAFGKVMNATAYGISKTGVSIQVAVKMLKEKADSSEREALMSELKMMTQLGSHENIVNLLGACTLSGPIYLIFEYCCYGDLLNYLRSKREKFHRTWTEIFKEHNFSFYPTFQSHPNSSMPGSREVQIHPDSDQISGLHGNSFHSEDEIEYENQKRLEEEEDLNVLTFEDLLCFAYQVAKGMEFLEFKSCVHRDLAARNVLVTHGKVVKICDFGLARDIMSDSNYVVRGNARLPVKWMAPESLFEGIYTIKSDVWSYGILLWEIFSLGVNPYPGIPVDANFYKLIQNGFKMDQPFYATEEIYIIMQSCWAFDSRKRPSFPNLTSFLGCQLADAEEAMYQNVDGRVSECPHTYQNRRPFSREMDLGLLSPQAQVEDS
TIE1, sequence (P35590 whole entry): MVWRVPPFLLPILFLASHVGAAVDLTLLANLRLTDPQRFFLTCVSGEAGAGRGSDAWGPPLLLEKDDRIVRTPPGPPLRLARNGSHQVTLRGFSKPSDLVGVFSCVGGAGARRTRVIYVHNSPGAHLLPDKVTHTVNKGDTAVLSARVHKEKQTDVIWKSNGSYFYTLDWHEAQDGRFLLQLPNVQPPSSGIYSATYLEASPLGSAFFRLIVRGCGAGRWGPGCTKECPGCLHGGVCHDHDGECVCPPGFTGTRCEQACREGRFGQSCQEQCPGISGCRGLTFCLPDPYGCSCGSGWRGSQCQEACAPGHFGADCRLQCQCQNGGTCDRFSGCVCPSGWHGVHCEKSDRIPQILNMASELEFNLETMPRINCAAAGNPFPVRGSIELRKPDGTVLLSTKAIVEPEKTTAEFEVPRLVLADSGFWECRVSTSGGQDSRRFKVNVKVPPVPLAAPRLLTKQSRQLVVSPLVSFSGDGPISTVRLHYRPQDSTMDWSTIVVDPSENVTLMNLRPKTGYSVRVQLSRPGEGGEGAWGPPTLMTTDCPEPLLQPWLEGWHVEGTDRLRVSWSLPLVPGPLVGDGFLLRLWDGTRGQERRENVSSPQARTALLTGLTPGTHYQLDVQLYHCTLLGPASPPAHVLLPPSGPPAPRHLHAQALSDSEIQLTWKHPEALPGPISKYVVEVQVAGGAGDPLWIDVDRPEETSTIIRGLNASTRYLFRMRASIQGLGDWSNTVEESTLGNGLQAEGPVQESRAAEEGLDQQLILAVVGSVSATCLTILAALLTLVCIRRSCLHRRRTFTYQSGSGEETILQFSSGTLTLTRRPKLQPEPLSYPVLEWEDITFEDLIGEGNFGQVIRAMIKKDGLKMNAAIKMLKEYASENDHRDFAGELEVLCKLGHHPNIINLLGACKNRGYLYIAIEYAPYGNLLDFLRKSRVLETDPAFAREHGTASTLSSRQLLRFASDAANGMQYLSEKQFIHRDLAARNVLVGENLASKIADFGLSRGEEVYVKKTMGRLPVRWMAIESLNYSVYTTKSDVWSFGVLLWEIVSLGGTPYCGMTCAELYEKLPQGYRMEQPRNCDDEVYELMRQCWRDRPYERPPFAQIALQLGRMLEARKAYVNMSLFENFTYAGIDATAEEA
TTK, sequence (P33981 whole entry): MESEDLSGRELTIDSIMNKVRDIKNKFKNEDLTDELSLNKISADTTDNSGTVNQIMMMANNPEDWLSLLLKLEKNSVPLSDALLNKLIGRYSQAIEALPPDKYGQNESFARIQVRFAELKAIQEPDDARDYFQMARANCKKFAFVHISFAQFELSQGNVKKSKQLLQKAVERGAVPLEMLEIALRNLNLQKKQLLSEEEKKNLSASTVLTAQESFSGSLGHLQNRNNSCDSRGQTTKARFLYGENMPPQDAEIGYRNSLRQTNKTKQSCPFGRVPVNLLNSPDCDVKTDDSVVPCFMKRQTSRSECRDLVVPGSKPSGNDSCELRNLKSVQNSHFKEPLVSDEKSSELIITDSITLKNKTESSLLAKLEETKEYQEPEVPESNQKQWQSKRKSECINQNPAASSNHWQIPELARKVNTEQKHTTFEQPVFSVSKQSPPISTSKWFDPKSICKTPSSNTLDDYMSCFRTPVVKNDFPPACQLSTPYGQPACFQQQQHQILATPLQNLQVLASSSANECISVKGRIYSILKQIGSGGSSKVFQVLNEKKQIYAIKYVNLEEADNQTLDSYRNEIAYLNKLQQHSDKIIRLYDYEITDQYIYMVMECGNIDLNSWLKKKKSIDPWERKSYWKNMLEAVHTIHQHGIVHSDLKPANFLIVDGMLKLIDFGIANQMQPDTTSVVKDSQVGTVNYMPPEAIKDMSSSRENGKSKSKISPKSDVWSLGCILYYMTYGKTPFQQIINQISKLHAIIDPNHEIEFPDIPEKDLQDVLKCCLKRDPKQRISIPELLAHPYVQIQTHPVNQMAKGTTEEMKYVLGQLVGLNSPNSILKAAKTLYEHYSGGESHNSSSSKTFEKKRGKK
T2 sequence (Q16539 whole entry): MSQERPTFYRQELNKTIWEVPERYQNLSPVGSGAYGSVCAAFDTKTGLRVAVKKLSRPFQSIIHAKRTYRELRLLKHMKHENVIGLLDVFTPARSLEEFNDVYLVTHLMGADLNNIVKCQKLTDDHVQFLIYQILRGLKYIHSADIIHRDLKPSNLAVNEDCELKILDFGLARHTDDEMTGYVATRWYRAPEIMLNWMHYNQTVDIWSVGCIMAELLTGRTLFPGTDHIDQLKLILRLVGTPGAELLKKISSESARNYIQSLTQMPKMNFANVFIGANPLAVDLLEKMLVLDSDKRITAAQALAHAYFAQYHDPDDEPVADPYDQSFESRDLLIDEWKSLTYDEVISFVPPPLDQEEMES
PKMYT1, sequence (Q99640 whole entry): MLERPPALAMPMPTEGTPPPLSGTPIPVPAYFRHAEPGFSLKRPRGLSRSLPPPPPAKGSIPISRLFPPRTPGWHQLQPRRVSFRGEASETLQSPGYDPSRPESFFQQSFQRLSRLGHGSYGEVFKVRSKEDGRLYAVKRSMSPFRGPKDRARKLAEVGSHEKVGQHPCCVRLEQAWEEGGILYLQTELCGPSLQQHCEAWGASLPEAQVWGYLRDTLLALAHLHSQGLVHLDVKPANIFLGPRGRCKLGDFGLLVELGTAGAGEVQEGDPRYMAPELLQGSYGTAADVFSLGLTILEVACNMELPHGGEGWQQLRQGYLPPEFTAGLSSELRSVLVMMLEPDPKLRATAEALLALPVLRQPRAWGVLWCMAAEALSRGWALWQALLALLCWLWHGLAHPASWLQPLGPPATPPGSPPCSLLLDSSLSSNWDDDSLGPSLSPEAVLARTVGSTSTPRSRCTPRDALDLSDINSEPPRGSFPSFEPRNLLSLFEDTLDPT
T4 sequence (Q99558 whole entry): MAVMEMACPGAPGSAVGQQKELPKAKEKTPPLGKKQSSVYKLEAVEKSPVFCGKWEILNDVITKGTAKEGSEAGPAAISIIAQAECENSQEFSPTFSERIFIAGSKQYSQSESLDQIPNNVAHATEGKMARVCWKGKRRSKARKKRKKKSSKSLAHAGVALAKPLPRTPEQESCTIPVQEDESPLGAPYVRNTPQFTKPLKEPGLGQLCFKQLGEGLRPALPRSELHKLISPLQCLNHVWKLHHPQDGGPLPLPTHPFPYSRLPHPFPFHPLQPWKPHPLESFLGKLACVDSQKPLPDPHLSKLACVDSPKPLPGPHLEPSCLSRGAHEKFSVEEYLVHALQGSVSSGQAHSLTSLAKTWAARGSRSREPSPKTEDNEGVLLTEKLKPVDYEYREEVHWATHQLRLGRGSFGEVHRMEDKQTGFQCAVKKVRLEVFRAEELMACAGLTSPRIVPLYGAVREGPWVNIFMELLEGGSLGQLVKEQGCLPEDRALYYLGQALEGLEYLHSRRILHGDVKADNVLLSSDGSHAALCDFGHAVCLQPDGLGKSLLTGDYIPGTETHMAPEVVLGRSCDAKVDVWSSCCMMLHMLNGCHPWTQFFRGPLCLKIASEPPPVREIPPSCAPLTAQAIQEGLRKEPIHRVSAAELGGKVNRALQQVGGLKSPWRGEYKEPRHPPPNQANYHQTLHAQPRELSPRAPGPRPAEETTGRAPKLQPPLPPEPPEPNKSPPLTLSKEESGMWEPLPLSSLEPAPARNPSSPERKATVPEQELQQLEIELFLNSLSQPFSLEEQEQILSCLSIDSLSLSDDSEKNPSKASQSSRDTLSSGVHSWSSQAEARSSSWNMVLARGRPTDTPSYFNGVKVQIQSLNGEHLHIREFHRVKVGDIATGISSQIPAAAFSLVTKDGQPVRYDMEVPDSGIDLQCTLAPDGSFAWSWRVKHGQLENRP

`c1ccc2c(c1)Sc1ccccc1N2CCN1CCOCC1` [J54]: the remaining binding on CDK3 was determined as 89%; at GSK3A, 80%; at PFPK5(P.falciparum), 98%; at DYRK2 it was 83%; on PRKCQ it was 96%; at p38-alpha, 100%. In addition, the remaining binding came out at 100% at SRPK3; 100% at PKMYT1; 100% at TAOK2; 100% on PIP5K2C; 100% on NIK; 99% on KIT(V559D,V654A). Besides, the remaining binding at FLT3(ITD) was 68%; at TTK, 17%; on TIE1 it was 98%; at CDK7, 74%; on GAK, 95%; at CSNK2A2, 77%.
